Measurements from PMC10893103, “Cyclodextrin-Enabled Enantioselective Complexation Study of Cathinone Analogs” (Molecules, 2024).

Experiment: Affinity capillary electrophoresis (ACE), pH 7.4
Conditions: 30 mM phosphate buffer pH 7.4, 25 °C, 15 kV
Excerpt: To assess the CD complex formation capability of the five cathinone derivatives, we devised a screening ACE method tailored to closely mimic physiological conditions. In a preliminary study, the ACE conditions were optimized regarding the type, pH, and concentration of the background electrolyte, the applied voltage, and the injection parameters. […] In order to avoid high Joule heat generation, sufficiently low voltage should be used; thus, after registering the Ohm plot (I-U plot), it was set to 15 kV. Throughout our ACE measurements, corrections for viscosity and ionic strength were systematically implemented to ensure precise determination of complex stability constants.
The CE experiments were performed on a HP ^3DCE and on an Agilent 7100 instrument (Agilent Technologies, Waldbronn, Germany) equipped with a photodiode array detector and the Chemstation software for data handling. Untreated fused silica capillaries (50 µm id, 48.5 cm total, 40 cm effective length) were purchased from Agilent. Conditioning of new capillary was conducted by flushing with 1 M NaOH followed by 0.1 M NaOH and water for 30 min each. Prior to all runs, the capillary was preconditioned by rinsing with BGE (2 min). The temperature of the capillary was set to 25 °C. UV detection was performed at 215 nm, and 15–25 kV voltage was applied. Samples were injected hydrodynamically (150 mbar·sec, optimized in the 50–500 mbar·sec range). The CE-pH measurements were carried out applying 25 kV voltage and 200 mbar·sec injection.
The background electrolyte of the CE-pH measurements contained 25 mM Na2HPO4 and 25 mM Na2B4O7, and the appropriate pH was adjusted with hydrochloric acid. During the ACE measurements, 30 mM phosphate buffer pH 7.4 (30 mM Na2HPO4—NaOH) was used. The running buffer was 20 mM acetic acid adjusting with 1 M Tris the pH to 4.5 during the chiral screening experiments. The BGEs contained CDs at various concentrations (0.25–20 mM) in the ACE experiments and 1-5-10 mM in the chiral method optimization experiments.
Stock solutions of each cathinone analog (mephedrone, flephedrone, 4-MEC, butylone, and MDPV) were prepared separately in methanol (1 mg/ml), and appropriate dilutions with water were used to prepare sample solutions for the CE-pH titration and for the ACE studies applying DMSO as EOF marker, while their mixture was used during the chiral separation studies.
The simplest way to determine the mobility is from the migration times (tmax) read from the electropherograms from which the apparent mobility could be calculated, but more accurate mobility values could be obtained by the determination with the Haarhoff–van der Linde (HVL) function based on Equation (2). (2) HVLδ(t;a0,a1,a2,a3δ)=a0/a2a3δ2πexp[−1/2(t−a1/a2)^2]/1/exp(a3δ)−1+1/2[1+erf(t−a1/2a2)] where a0 is the area of the HVL function, a1 is the position of the Gaussian component, a2 is the standard deviation of the Gaussian component, and a3δ is the peak shape distortion. The application of the HVL function is necessary in the case of accurate ACE measurements because, in several cases, the peaks are distorted due to the complex formation, which makes reading the migration times and calculating the mobility more difficult and imprecise.
The most popular technique for quantifying the analyte–ligand interaction with CE is mobility shift ACE.

Row | Molecule | 4-MEC–CD complex stability constant, Kstab/Kstab1 (unresolved or first migrating enantiomer) [M⁻¹] | Butylone–CD complex stability constant, Kstab/Kstab1 (unresolved or first migrating enantiomer) [M⁻¹] | Flephedrone–CD complex stability constant, Kstab/Kstab1 (unresolved or first migrating enantiomer) [M⁻¹] | MDPV–CD complex stability constant, Kstab/Kstab1 (unresolved or first migrating enantiomer) [M⁻¹] | Mephedrone–CD complex stability constant, Kstab/Kstab1 (unresolved or first migrating enantiomer) [M⁻¹] | 4-MEC–CD complex stability constant, Kstab2 (second migrating enantiomer) [M⁻¹] | Mephedrone–CD complex stability constant, Kstab2 (second migrating enantiomer) [M⁻¹] | Butylone–CD complex stability constant, Kstab2 (second migrating enantiomer) [M⁻¹] | Flephedrone–CD complex stability constant, Kstab2 (second migrating enantiomer) [M⁻¹] | MDPV–CD complex stability constant, Kstab2 (second migrating enantiomer) [M⁻¹]
1 | CO[C@@H]1[C@@H](OC)[C@H]2O[C@H]3[C@H](OC)[C@@H](OC)[C@@H](O[C@H]4[C@H](OC)[C@@H](OC)[C@@H](O[C@H]5[C@H](OC)[C@@H](OC)[C@@H](O[C@H]6[C@H](OC)[C@@H](OC)[C@@H](O[C@H]7[C@H](OC)[C@@H](OC)[C@@H](O[C@@H]1[C@@H](COS(=O)(=O)O)O2)O[C@@H]7COS(=O)(=O)O)O[C@@H]6COS(=O)(=O)O)O[C@@H]5COS(=O)(=O)O)O[C@@H]4COS(=O)(=O)O)O[C@@H]3COS(=O)(=O)O [HxDMS-α-CD, hexakis-(2,3-O-dimethyl, 6-O-sulfo)-α-CD] | 55 ± 15 | 550 ± 95 | 105 ± 12 | 220 ± 30 | 270 ± 110 | – | – | – | – | –
2 | O=C(O)CCSC[C@H]1O[C@@H]2O[C@H]3[C@H](O)[C@@H](O)[C@@H](O[C@H]4[C@H](O)[C@@H](O)[C@@H](O[C@H]5[C@H](O)[C@@H](O)[C@@H](O[C@H]6[C@H](O)[C@@H](O)[C@@H](O[C@H]7[C@H](O)[C@@H](O)[C@@H](O[C@H]8[C@H](O)[C@@H](O)[C@@H](O[C@H]9[C@H](O)C(O)[C@@H](O[C@H]1[C@H](O)[C@H]2O)O[C@@H]9CSCCC(=O)O)O[C@@H]8CSCCC(=O)O)O[C@@H]7CSCCC(=O)O)O[C@@H]6CSCCC(=O)O)O[C@@H]5CSCCC(=O)O)O[C@@H]4CSCCC(=O)O)O[C@@H]3CSCCC(=O)O (some centres unmarked) [SGX, octakis(6-deoxy-6-(2-carboxyethyl)thio)-γ-CD] | 975 ± 90 | – | 315 ± 20 | – | 825 ± 65 | 960 ± 95 | – | – | – | –
3 | sulfopropylated-β-CD [SP-β-CD (DS~4)] | 620 ± 65 | – | 120 ± 12 | – | 500 ± 65 | – | 450 ± 65 | – | – | –
4 | randomly methylated-β-CD [RAME-β-CD] | 140 ± 7 | 325 ± 15 | 40 ± 5 | 585 ± 35 | 100 ± 5 | – | – | 350 ± 15 | – | –
5 | sulfated-γ-CD [S-γ-CD] | 290 ± 30 | 960 ± 95 | – | 250 ± 55 | 160 ± 15 | – | – | – | – | –
6 | OC[C@H]1O[C@@H]2O[C@H]3[C@H](O)[C@@H](O)[C@@H](O[C@H]4[C@H](O)[C@@H](O)[C@@H](O[C@H]5[C@H](O)[C@@H](O)[C@@H](O[C@H]6[C@H](O)[C@@H](O)[C@@H](O[C@H]7[C@H](O)[C@@H](O)[C@@H](O[C@H]8[C@H](O)[C@@H](O)[C@@H](O[C@H]1[C@H](O)[C@H]2O)O[C@@H]8CO)O[C@@H]7CO)O[C@@H]6CO)O[C@@H]5CN1CCCCC1)O[C@@H]4CO)O[C@@H]3CO [PIP-β-CD, 6-monodeoxy-6-piperidine-β-CD] | < 10 | < 10 | < 10 | < 10 | < 10 | – | – | – | – | –
7 | carboxymethylated-β-CD [CM-β-CD] | 620 ± 40 | – | 190 ± 10 | – | 610 ± 30 | 725 ± 45 | 615 ± 25 | – | 225 ± 10 | –
8 | sulfopropylated-γ-CD [SP-γ-CD] | 70 ± 10 | 70 ± 10 | < 10 | 140 ± 20 | 45 ± 4 | – | – | – | – | –
9 | OC[C@H]1O[C@@H]2O[C@H]3[C@H](O)[C@@H](O)[C@@H](O[C@H]4[C@H](O)[C@@H](O)[C@@H](O[C@H]5[C@H](O)[C@@H](O)[C@@H](O[C@H]6[C@H](O)[C@@H](O)[C@@H](O[C@H]7[C@H](O)[C@@H](O)[C@@H](O[C@H]1[C@H](O)[C@H]2O)O[C@@H]7CO)O[C@@H]6CO)O[C@@H]5CO)O[C@@H]4CO)O[C@@H]3CO [α-CD] | 30 ± 5 | 40 ± 5 | 40 ± 4 | 40 ± 6 | 30 ± 4 | – | – | – | – | 50 ± 5
10 | OC[C@H]1O[C@@H]2O[C@H]3[C@H](O)[C@@H](O)[C@@H](O[C@H]4[C@H](O)[C@@H](O)[C@@H](O[C@H]5[C@H](O)[C@@H](O)[C@@H](O[C@H]6[C@H](O)[C@@H](O)[C@@H](O[C@H]7[C@H](O)[C@@H](O)[C@@H](O[C@H]8[C@H](O)[C@@H](O)[C@@H](O[C@H]9[C@H](O)[C@@H](O)[C@@H](O[C@H]1[C@H](O)[C@H]2O)O[C@@H]9CO)O[C@@H]8CO)O[C@@H]7CO)O[C@@H]6CO)O[C@@H]5CO)O[C@@H]4CO)O[C@@H]3CO [γ-CD] | 90 ± 15 | 30 ± 3 | 125 ± 10 | 100 ± 10 | 60 ± 10 | – | – | – | – | –
11 | COC[C@H]1O[C@@H]2O[C@H]3[C@H](OC)[C@@H](OC)[C@@H](O[C@H]4[C@H](OC)[C@@H](OC)[C@@H](O[C@H]5[C@H](OC)[C@@H](OC)[C@@H](O[C@H]6[C@H](OC)[C@@H](OC)[C@@H](O[C@H]7[C@H](OC)[C@@H](OC)[C@@H](O[C@H]8[C@H](OC)[C@@H](OC)[C@@H](O[C@H]9[C@H](OC)[C@@H](OC)[C@@H](O[C@H]1[C@H](OC)[C@H]2OC)O[C@@H]9COC)O[C@@H]8COC)O[C@@H]7COC)O[C@@H]6COC)O[C@@H]5COC)O[C@@H]4COC)O[C@@H]3COC [TRIME-γ-CD, permethylated-γ-CD] | 20 ± 4 | 25 ± 10 | < 10 | 45 ± 14 | < 10 | – | – | – | – | –
12 | sulfobutyl-ether-γ-CD [SBE-γ-CD] | < 10 | 95 ± 15 | 100 ± 5 | 160 ± 20 | 70 ± 15 | – | 65 ± 12 | 100 ± 15 | – | –
